Results as given in ChEMBL document CHEMBL1212896, “Discovery of novel cyanodihydropyridines as potent mineralocorticoid receptor antagonists” (J Med Chem, 2010).
Values after ≈ are worked out from the molar mass of the structure shown. Active and inactive are the calls of the source. The rule behind the calls is not given here.

Assays:
[1] = biological target: T1, Mineralocorticoid receptor (Homo sapiens, UniProt P08235)
T1 sequence (P08235 whole entry): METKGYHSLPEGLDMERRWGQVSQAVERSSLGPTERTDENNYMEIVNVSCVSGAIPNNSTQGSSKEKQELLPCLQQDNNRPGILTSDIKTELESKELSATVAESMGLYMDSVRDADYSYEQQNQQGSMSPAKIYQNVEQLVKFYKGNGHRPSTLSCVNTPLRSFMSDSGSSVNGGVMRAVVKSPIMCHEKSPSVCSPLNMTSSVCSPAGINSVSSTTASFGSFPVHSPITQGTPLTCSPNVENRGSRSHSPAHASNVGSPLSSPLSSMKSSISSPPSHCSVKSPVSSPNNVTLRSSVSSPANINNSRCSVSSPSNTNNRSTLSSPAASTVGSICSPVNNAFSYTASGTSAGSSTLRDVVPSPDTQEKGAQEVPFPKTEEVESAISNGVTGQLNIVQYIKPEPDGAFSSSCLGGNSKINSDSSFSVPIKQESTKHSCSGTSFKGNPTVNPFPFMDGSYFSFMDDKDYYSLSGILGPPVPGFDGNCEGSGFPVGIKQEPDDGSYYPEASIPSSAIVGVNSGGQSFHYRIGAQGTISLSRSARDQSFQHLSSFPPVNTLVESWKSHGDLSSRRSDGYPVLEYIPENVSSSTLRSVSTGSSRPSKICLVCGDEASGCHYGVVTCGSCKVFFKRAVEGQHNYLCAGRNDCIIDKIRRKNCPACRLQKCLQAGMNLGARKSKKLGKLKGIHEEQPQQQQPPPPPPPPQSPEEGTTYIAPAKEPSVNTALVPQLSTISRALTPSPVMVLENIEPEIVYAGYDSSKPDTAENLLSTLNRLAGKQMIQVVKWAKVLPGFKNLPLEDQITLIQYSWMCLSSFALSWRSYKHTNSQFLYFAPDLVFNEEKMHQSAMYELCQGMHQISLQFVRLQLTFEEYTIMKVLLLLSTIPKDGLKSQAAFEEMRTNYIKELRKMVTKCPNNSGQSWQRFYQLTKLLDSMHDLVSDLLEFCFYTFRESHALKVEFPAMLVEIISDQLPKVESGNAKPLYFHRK
Description: Antagonist activity at mineralocorticoid receptor LBD expressed in human HUH7 cells coexpressing GAL4 by luciferase reporter gene assay

Liver microsomes = experiment: Metabolic stability in rat liver microsomes assessed as compound remaining; type: ADME, Microsome
[2] = Solubility of the compound; type: physicochemical
[3] = Half life in Sprague-Dawley rat at 5 mg/kg, iv; type: ADME, organism-based; design: dose 5 mg/kg, route intravenous; conditions: in vivo
Rattus norvegicus [4] = experiment: Antihypertensive activity in Dahl salt-sensitive rat model assessed as decrease of systolic blood pressure at 60 mg/kg, po bid for 21 days; type: functional, organism-based; design: dose 60 mg/kg; conditions: Artery
Rattus norvegicus [5] = experiment: Protection of renal injury in Dahl salt-sensitive rat model assessed as reduction of urinal albumin excretion at 60 mg/kg, po bid for 21 days; type: functional, organism-based; design: dose 60 mg/kg
[6] = Volume of distribution at steady state in Sprague-Dawley rat at 5 mg/kg, iv; type: ADME, organism-based; design: dose 5 mg/kg, route intravenous; conditions: in vivo, read-out: Vdss
[7] = Clearance in Sprague-Dawley rat at 5 mg/kg, iv; type: ADME, organism-based; design: dose 5 mg/kg, route intravenous; conditions: in vivo

COC(=O)C1=C(Cn2ccnc2)NC(C)=C(C#N)C1c1ccc(F)cc1Cl (stereo not given)
IC50 [1]: 9 nM | Stability (Liver microsomes): 64% | solubility [2]: 5 µM (≈ 1.93 µg/mL)

COC(=O)C1=C(Cn2cncn2)NC(C)=C(C#N)C1c1ccc(F)cc1Cl (stereo not given)
IC50 [1]: 123 nM | Stability (Liver microsomes): 34% | solubility [2]: > 5 µM

CCCC1=C(C(=O)OC)C(c2ccccc2Cl)C(C#N)=C(C)N1 (stereo not given)
IC50 [1]: 64 nM | Stability (Liver microsomes): 13% | solubility [2]: < 5 µM

COC(=O)C1=C(C)NC(C)=C(C#N)C1c1ccc(F)cc1Cl (stereo not given)
IC50 [1]: 92 nM | Stability (Liver microsomes): 14% | solubility [2]: 10 µM (≈ 3.21 µg/mL)

COC(=O)C1=C(Cn2cnnn2)NC(C)=C(C#N)C1c1ccc(F)cc1Cl (stereo not given)
IC50 [1]: 64 nM | half-life [3]: 4.84 h | Activity (Rattus norvegicus [4]): Active | Stability (Liver microsomes): 60% | Activity (Rattus norvegicus [5]): Active | solubility [2]: 31 µM (≈ 12.1 µg/mL) | Vd [6]: 0.9 L/kg | clearance [7]: 14.1 mL/min/kg
